Measurements as given in patent US11912701B2, “Protein kinase inhibitors for promoting liver regeneration or reducing or preventing hepatocyte death” (HEPAREGENIX GMBH, priority 2018, dated 2024).

Assays:
Format in all cases: biochemical
[1] = biological target: T1, MKK7 (Homo sapiens, UniProt O14733); experiment: 33PanQinase enzyme assay, MKK7; parameters: purchased ProQinase GmbH, Freiburg, Germany (33PanQinase Assay Service); details: ratio IC50(MKK7)/IC50(MKK4)
T1 sequence (O14733 1-419): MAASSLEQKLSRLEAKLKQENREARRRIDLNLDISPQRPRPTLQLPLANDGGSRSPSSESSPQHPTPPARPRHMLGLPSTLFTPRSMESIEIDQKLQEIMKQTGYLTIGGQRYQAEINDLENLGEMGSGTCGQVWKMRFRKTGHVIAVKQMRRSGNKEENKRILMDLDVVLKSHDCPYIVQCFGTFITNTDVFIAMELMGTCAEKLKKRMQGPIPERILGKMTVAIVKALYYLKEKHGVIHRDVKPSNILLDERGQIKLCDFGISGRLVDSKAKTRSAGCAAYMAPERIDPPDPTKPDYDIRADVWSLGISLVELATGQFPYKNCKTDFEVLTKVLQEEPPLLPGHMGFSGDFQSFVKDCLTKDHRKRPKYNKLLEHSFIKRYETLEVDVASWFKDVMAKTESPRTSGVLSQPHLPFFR
Method in brief: (§1)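 Radiometric 33PanQinase format: kinase with substrate, ATP and compound (added in 10% DMSO stock) incubated 60 min at 30° C, stopped with 2% H3PO4, ^33Pi incorporation counted by scintillation. Single-concentration data given as % residual activity; IC50 by least-squares fit, with selectivity as IC50(off-target)/IC50(MKK4).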

[2] = biological target: JNK1 (Homo sapiens, UniProt P45983); experiment: 33PanQinase enzyme assay, JNK1; parameters: purchased ProQinase GmbH, Freiburg, Germany (33PanQinase Assay Service); details: ratio IC50(JNK1)/IC50(MKK4)
Method in brief: as §1

[3] = biological target: T2, MKK4 (Homo sapiens, UniProt P45985); experiment: 33PanQinase enzyme assay, MKK4; details: assay 'IC50'; read-out: Potency MKK4 (IC50)
T2 construct: purchased ProQinase GmbH, Freiburg, Germany (33PanQinase Assay Service)
T2 sequence (P45985 1-399): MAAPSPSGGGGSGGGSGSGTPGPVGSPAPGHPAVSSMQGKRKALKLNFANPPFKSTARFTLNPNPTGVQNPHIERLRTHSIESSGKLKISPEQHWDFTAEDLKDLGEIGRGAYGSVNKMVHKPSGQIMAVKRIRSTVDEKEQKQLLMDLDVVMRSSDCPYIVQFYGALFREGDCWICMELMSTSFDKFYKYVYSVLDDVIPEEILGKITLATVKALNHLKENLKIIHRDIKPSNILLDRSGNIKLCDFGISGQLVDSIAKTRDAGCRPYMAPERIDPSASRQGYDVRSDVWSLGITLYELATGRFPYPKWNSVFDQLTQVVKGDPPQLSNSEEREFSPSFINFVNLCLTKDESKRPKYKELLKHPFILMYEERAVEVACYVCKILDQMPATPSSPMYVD
Method in brief: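 Radiometric 33PanQinase assay: kinase, substrate, ATP and compound in standard buffer, 60 min at 30 °C; 33Pi incorporation read by scintillation counting.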

[4] = biological target: T3, BRaf (Homo sapiens, UniProt P15056); experiment: 33PanQinase enzyme assay, BRaf; details: ratio IC50(BRaf)/IC50(MKK4)
T3 construct: purchased ProQinase GmbH, Freiburg, Germany (33PanQinase Assay Service)
Method in brief: as §1

JNK1, sequence (P45983 whole entry): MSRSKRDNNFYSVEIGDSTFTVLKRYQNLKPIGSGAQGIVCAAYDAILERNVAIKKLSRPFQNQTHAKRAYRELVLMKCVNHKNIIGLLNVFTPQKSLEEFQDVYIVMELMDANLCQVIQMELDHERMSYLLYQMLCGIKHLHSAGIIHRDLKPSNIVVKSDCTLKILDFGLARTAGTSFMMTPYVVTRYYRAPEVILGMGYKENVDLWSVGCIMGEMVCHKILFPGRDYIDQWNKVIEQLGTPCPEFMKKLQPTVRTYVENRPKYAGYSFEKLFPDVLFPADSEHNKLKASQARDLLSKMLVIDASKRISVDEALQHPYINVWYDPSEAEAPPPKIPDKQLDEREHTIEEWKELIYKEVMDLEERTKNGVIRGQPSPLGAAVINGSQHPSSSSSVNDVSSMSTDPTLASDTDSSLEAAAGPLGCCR
T3 sequence (P15056 whole entry, species assumed): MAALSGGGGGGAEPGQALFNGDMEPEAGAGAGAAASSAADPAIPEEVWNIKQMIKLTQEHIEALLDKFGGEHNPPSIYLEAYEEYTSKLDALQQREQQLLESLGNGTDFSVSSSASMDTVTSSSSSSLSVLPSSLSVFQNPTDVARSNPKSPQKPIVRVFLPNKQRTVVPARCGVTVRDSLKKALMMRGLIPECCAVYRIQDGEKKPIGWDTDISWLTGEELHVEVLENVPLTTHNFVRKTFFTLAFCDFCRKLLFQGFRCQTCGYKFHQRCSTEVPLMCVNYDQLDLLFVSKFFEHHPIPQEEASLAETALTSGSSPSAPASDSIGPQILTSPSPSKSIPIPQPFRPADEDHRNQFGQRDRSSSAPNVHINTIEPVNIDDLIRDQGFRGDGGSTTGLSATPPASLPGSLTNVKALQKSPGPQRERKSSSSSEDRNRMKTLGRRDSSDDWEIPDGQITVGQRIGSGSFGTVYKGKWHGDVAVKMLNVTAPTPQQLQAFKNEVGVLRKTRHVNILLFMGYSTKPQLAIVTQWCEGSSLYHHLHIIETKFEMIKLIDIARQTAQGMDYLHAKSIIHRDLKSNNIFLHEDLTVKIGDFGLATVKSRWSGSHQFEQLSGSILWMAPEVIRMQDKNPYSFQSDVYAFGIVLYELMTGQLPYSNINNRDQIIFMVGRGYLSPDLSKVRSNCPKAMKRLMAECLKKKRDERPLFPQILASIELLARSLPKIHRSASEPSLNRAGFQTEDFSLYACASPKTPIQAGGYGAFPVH

| SMILES | Selectivity IVIKK7, IC50(off-target)/IC50(MKK4) [1] | Selectivity JNK1, IC50(off-target)/IC50(MKK4) [2] | IC50 [3] [nM] | Selectivity Braf, IC50(off-target)/IC50(MKK4) [4] |
| --- | --- | --- | --- | --- |
| CCCS(=O)(=O)Nc1ccc(F)c(C(=O)c2c[nH]c3ncc(N4CCOCC4)cc23)c1F [Example 70, N-(2,4-difluoro-3-(5-morpholino-1H-pyrrolo[2,3-b]pyridine-3-carbonyl)phenyl)propane-1-sulfonamide] | +++ (IC50(off-target)/IC50(MKK4) > 100) | ++ (100 ≥ IC50(off-target)/IC50(MKK4) > 10) | 100 to 1000 | ◯ (3 ≥ IC50(off-target)/IC50(MKK4)) |
| CCCS(=O)(=O)Nc1c(F)ccc(C(=O)c2c[nH]c3ncc(-c4cnc(C)nc4Cl)cc23)c1F [Example 186, N-(3-(5-(4-chloro-2-methylpyrimidin-5-yl)-1H-pyrrolo[2,3-b]pyridine-3-carbonyl)-2,6-difluorophenyl)propane-1-sulfonamide] | +++ (IC50(off-target)/IC50(MKK4) > 100) | +++ (IC50(off-target)/IC50(MKK4) > 100) | < 100 | +++ (IC50(off-target)/IC50(MKK4) > 100) |
| CCCS(=O)(=O)Nc1c(F)ccc(C(=O)c2c[nH]c3ncc(-c4c(C)cc(C)nc4C)cc23)c1F [Example 168, N-(2,6-difluoro-3-(5-(2,4,6-trimethylpyridin-3-yl)-1H-pyrrolo[2,3-b]pyridine-3-carbonyl)phenyl)propane-1-sulfonamide] | +++ (IC50(off-target)/IC50(MKK4) > 100) | ++ (100 ≥ IC50(off-target)/IC50(MKK4) > 10) | 100 to 1000 | +++ (IC50(off-target)/IC50(MKK4) > 100) |
| CCCS(=O)(=O)Nc1c(F)ccc(C(=O)c2c[nH]c3ncc(-c4ccc(S(N)(=O)=O)cc4)cc23)c1F [Example 220, 4-(3-(2,4-difluoro-3-(propylsulfonamido)benzoyl)-1H-pyrrolo[2,3-b]pyridin-5-yl)benzenesulfonamide] | +++ (IC50(off-target)/IC50(MKK4) > 100) | ++ (100 ≥ IC50(off-target)/IC50(MKK4) > 10) | < 100 | ++ (100 ≥ IC50(off-target)/IC50(MKK4) > 10) |
| O=C(c1ccc(F)c(NS(=O)(=O)Cc2ccccc2)c1)c1c[nH]c2ncc(-c3ccc(Cl)cc3)cc12 [Example 133, N-(5-(5-(4-chlorophenyl)-1H-pyrrolo[2,3-b]pyridine-3-carbonyl)-2-fluorophenyl)-1-phenylmethanesulfonamide] | +++ (IC50(off-target)/IC50(MKK4) > 100) | ◯ (3 ≥ IC50(off-target)/IC50(MKK4)) | 100 to 1000 | ++ (100 ≥ IC50(off-target)/IC50(MKK4) > 10) |
| CCCS(=O)(=O)Nc1c(F)ccc(C(=O)c2c[nH]c3ncc(-c4ccc(F)cc4)cc23)c1F [Example 216, N-(2,6-difluoro-3-(5-(4-fluorophenyl)-1H-pyrrolo[2,3-b]pyridine-3-carbonyl)phenyl)propane-1-sulfonamide] | +++ (IC50(off-target)/IC50(MKK4) > 100) | +++ (IC50(off-target)/IC50(MKK4) > 100) | < 100 | +++ (IC50(off-target)/IC50(MKK4) > 100) |
| CCCS(=O)(=O)Nc1c(F)ccc(C(=O)c2c[nH]c3ncc(-c4cnc(C(N)=O)nc4)cc23)c1F [Example 190, 5-(3-(2,4-difluoro-3-(propylsulfonamido)benzoyl)-1H-pyrrolo[2,3-b]pyridin-5-yl)pyrimidine-2-carboxamide] | +++ (IC50(off-target)/IC50(MKK4) > 100) | +++ (IC50(off-target)/IC50(MKK4) > 100) | < 100 | +++ (IC50(off-target)/IC50(MKK4) > 100) |
| CCCS(=O)(=O)Nc1ccc(F)c(C(=O)c2c[nH]c3ncc(-c4ccc(N=S(C)(C)=O)cc4)cc23)c1F [Example 119, N-(3-(5-(4-((dimethyl(oxo)-l6-sulfaneylidene)amino)phenyl)-1H-pyrrolo[2,3-b]pyridine-3-carbonyl)-2,4-difluorophenyl)propane-1-sulfonamide] | +++ (IC50(off-target)/IC50(MKK4) > 100) | ◯ (3 ≥ IC50(off-target)/IC50(MKK4)) | 100 to 1000 | ◯ (3 ≥ IC50(off-target)/IC50(MKK4)) |
| CCCS(=O)(=O)Nc1c(F)ccc(C(=O)c2c[nH]c3ncc(-c4cnc(N(C)CCO)nc4)cc23)c1F [Example 202, N-(2,6-difluoro-3-(5-(2-((2-hydroxyethyl)(methyl)amino)pyrimidin-5-yl)-1H-pyrrolo[2,3-b]pyridine-3-carbonyl)phenyl)propane-1-sulfonamide] | +++ (IC50(off-target)/IC50(MKK4) > 100) | +++ (IC50(off-target)/IC50(MKK4) > 100) | < 100 | ++ (100 ≥ IC50(off-target)/IC50(MKK4) > 10) |
| CCCS(=O)(=O)Nc1c(F)ccc(C(=O)c2c[nH]c3ncc(-c4cnc(N5CCNCC5)nc4)cc23)c1F [Example 185, N-(2,6-difluoro-3-(5-(2-(piperazin-1-yl)pyrimidin-5-yl)-1H-pyrrolo[2,3-b]pyridine-3-carbonyl)phenyl)propane-1-sulfonamide] | +++ (IC50(off-target)/IC50(MKK4) > 100) | ++ (100 ≥ IC50(off-target)/IC50(MKK4) > 10) | 100 to 1000 | + (10 ≥ IC50(off-target)/IC50(MKK4) > 3) |
| O=C(c1ccc(F)c(NS(=O)(=O)CCC(F)(F)F)c1F)c1c[nH]c2ncc(-c3ccc(Cl)cc3)cc12 [Example 150, N-(3-(5-(4-chlorophenyl)-1H-pyrrolo[2,3-b]pyridine-3-carbonyl)-2,6-difluorophenyl)-3,3,3-trifluoropropane-1-sulfonamide] | +++ (IC50(off-target)/IC50(MKK4) > 100) | +++ (IC50(off-target)/IC50(MKK4) > 100) | < 100 | +++ (IC50(off-target)/IC50(MKK4) > 100) |
| CCCS(=O)(=O)Nc1c(F)ccc(C(=O)c2c[nH]c3ncc(-c4cnc(C#N)nc4)cc23)c1F [Example 189, N-(3-(5-(2-cyanopyrimidin-5-yl)-1H-pyrrolo[2,3-b]pyridine-3-carbonyl)-2,6-difluorophenyl)propane-1-sulfonamide] | +++ (IC50(off-target)/IC50(MKK4) > 100) | ++ (100 ≥ IC50(off-target)/IC50(MKK4) > 10) | 100 to 1000 | ++ (100 ≥ IC50(off-target)/IC50(MKK4) > 10) |
| CCCS(=O)(=O)Nc1ccc(F)c(C(=O)c2c[nH]c3ncc(-c4ccc(P(C)(C)=O)cc4)cc23)c1F [Example 93, N-(3-(5-(4-(dimethylphosphoryl)phenyl)-1H-pyrrolo[2,3-b]pyridine-3-carbonyl)-2,4-difluorophenyl)propane-1-sulfonamide] | +++ (IC50(off-target)/IC50(MKK4) > 100) | ++ (100 ≥ IC50(off-target)/IC50(MKK4) > 10) | 100 to 1000 | ◯ (3 ≥ IC50(off-target)/IC50(MKK4)) |
